# In patent publication US20240092846A1, “ENGINEERED CYCLOTIDES WITH POTENT BROAD ANTIMICROBIAL ACTIVITY” (priority 2022, published 2024):
# Where two headings read alike, the source gives them in different places. Positions of bridges follow the written chain, without caps; N, C: chain ends.
# Tests used:
# K. pneumoniae = settings: CAMHB
# Experimental: (§1) Broad-spectrum antimicrobial activity was evaluated using the broth microdilution assays against two different pathogens from four different species of bacteria (P. aeruginosa, S. aureus, K. pneumoniae, and E. coli) to determine if the cyclotides retained its potent activity. Broth microdilution assays were utilized to determine the minimum inhibitory concentrations (MICs) of our cyclotides according to the CLSI (formerly NCCLS) guidelines modifications as described below (40). The assay utilized cation-adjusted Mueller-Hinton broth (CAMHB) (Becton, Dickinson and Company, Franklin Lakes, NJ) which was prepared according to the manufacturer's instructions. Cyclotide solutions were prepared as 10× solutions in 0.01% acetic acid. Cyclotide were serially diluted two-fold at concentrations ranging from 25-0.05 μM that contained CAMHB and 0.04% bovine serum albumin (BSA) in polypropylene microtiter plates (Corning, Corning, NY). All bacteria were incubated overnight at 37° C. at 200 rpm in CAMHB and bacterial inoculum was adjusted with additional CAMHB to 0.5 McFarland standard through spectrophotometry at 600 nm. […] Study strains included a total of 20 P. aeruginosa and 20 methicillin resistant S. aureus strains from patients with cystic fibrosis at the Keck Medical Center of the University of Southern California. […] Colistin sulphate (Sigma-Aldrich, St Louis, MO) was used as a reference antibiotic for P. aeruginosa and E. coli, while vancomycin hydrochloride and meropenem trihydrate were used as reference antibiotics for S. aureus and K. pneumoniae.
# P. aeruginosa = settings: CAMHB; for MIC against P. aeruginosa: summary over the tested strains
# Experimental: as §1
# S. aureus = settings: CAMHB
# Experimental: as §1
# E. coli = settings: CAMHB
# Experimental: as §1
# [1] = Maximum tolerated dose (MTD) toxicology study
# Text: (§2) Colistin was used as a control antibiotic.[28] […] For this purpose, Applicant employed a P. aeruginosa bacterial peritonitis model.[29] This animal model is a well-established acute infection model and is commonly utilized as a common preclinical screening method for new antibiotics.[30] Peritonitis in Balb/c mice (n=10) was established by intraperitoneal injection of 1.5×10^7 colony forming units (CFU) per mouse of P. aeruginosa (Schroeter) Migula (ATCC 27853).
# Maximum tolerated dose (MTD) toxicology Studies. The MTD was determined using two different endpoints: weight loss and clinical scoring. Clinical scores were evaluated through activity, appearance and body condition, similar to previously published literature (42). […] Any dose escalation that leads to moderate toxicity (clinical score of >2) was ceased and the dose prior served as the MTD. Mice were monitored every hour for 4 h after injection on the first day. After 24 h, mice were monitored twice daily for another two days until weight and clinical scores were returned to normal. Mice that met the criteria for moribund included a >20% weight loss and clinical score of >3 and were euthanized.
# in vitro = assay: in vitro
# Experimental: This was accomplished by incubating the corresponding peptides in human serum at 37° C. The quantitative analysis of undigested polypeptides was performed using liquid chromatography coupled with tandem mass spectrometry (LC-MS/MS). MCoTI-cyclotides present a very rigid structure,[24] which makes them extremely stable to proteolytic degradation.
# Human serum stability. […]. Peptides were dissolved in water at 10 mg/mL concentration. 150 μg of peptides (15 μL) were mixed with 500 μL of human serum and incubated at 37° C. Samples (30 μL) were taken at various time intervals (0-120 h) and serum proteins were precipitated using 180 μL of acetonitrile containing 0.1% TFA. After centrifugation the pellet was dissolved in 8 M GdmCl and the supernatant was lyophilized and re-dissolved in 5% acetonitrile in water containing 0.1% formic acid. Both the supernatant and solubilized pellet fractions were analyzed by HPLC and LC-MS/MS. Each experiment was done in triplicate.
# [2] = test system: clinical isolates of methicillin-resistant S. aureus (MRSA); settings: MRSA clinical isolates, n=20
# Experimental: as §1
# [3] = test system: clinical isolates of P. aeruginosa; settings: clinical isolates, n=20
# Experimental: as §1
# [4] = test system: P. aeruginosa (Schroeter) Migula (ATCC 27853); assay: P. aeruginosa-induced peritonitis murine model; type: in vivo, Balb/c mice; set-up: reference not given here; settings: single i.p. dose 15 mg/kg, 7 days
# Text: as §2
# P. aeruginosa-induced peritonitis murine model. Eight to 10-week-old Balb/c mice (Jackson Laboratory, Bar Harbor, ME) were housed five in a cage with standard chow and water ad libitum. To establish the model, 1.5×10^7 CFU of log-phase P. aeruginosa ATCC 27853 was injected intraperitoneally. […] Mice were monitored for 7 days and/or euthanized if any mice presented signs of moribundity.
# [5] = S. aureus BAA977, clindamycin resistant strain
# [6] = S. aureus HH35, methicillin resistant strain
# [7] = S. aureus USA300, methicillin resistant strain
# [8] = summary over the tested strains
Molecule,MIC (K. pneumoniae; K. pneumoniae BAA1705) [µM],MIC (K. pneumoniae; K. pneumoniae K6) [µM],MIC (P. aeruginosa; P. aeruginosa PA27853) [µM],MIC against P. aeruginosa (P. aeruginosa) [µM],MIC (S. aureus; S. aureus 25973) [µM],MIC (S. aureus; [5]) [µM],MIC (S. aureus; [6]) [µM],MIC (S. aureus; [7]) [µM],MIC (E. coli; E. coli DS377) [µM],MIC (E. coli; E. coli K12) [µM],also measured
CC[C@H](C)[C@@H]1NC(=O)[C@@H]2CSSC[C@@H]3NC(=O)[C@H](C(C)C)NC(=O)CNC(=O)CNC(=O)CNC(=O)[C@H](CCCNC(=N)N)NC(=O)[C@H](CCCNC(=N)N)NC(=O)CNC(=O)[C@H](C(C)C)NC(=O)[C@@H]4CSSC[C@H](NC(=O)[C@H](CC(C)C)NC(=O)[C@H](CCCNC(=N)N)NC(=O)CNC(=O)CNC(=O)CNC(=O)[C@H](CO)NC(=O)CNC(=O)[C@H](CO)NC(=O)CNC(=O)[C@@H]5CSSC[C@H](NC(=O)[C@H](CC(=O)O)NC(=O)[C@H](CO)NC(=O)[C@H](CC(=O)O)NC(=O)[C@H](CCCNC(=N)N)NC(=O)[C@H](CCCNC(=N)N)NC(=O)[C@H](CSSC[C@H](NC1=O)C(=O)N[C@@H](CCCNC(=N)N)C(=O)NCC(=O)N[C@@H](CC(N)=O)C(=O)NCC(=O)N[C@@H](Cc1ccc(O)cc1)C(=O)N5)NC(=O)[C@H](CCCNC(=N)N)NC(=O)[C@H](CCC(N)=O)NC(=O)[C@H](CC(C)C)NC(=O)[C@H]([C@@H](C)CC)NC(=O)[C@H](CCCCN)NC(=O)[C@@H]1CCCN1C3=O)C(=O)N1CCC[C@H]1C(=O)NCC(=O)N[C@@H](C)C(=O)N2)C(=O)N[C@@H](Cc1ccc(O)cc1)C(=O)N[C@H]1CSSC[C@H](NC(=O)[C@H](Cc2ccccc2)NC(=O)[C@H](CCCNC(=N)N)NC(=O)[C@H](CCCNC(=N)N)NC(=O)[C@H](CCCNC(=N)N)NC1=O)C(=O)N[C@@H](C(C)C)C(=O)N4 [MCo-PG4],12.5,12.5,1.6,1.6,12.5,12.5,12.5,12.5,1.6,1.6,–
"CC(C)C[C@H](NC(=O)[C@H](CCCNC(=N)N)NC(=O)CNC(=O)CNC(=O)[C@@H](N)CCCNC(=N)N)C(=O)N[C@H]1CSSC[C@@H](C(=O)N[C@H](C(=O)NCC(=O)N[C@@H](CCCNC(=N)N)C(N)=O)C(C)C)NC(=O)[C@H](C(C)C)NC(=O)[C@@H]2CSSC[C@H](NC(=O)[C@H](Cc3ccc(O)cc3)NC1=O)C(=O)N[C@@H](CCCNC(=N)N)C(=O)N[C@@H](CCCNC(=N)N)C(=O)N[C@@H](CCCNC(=N)N)C(=O)N[C@@H](Cc1ccccc1)C(=O)N2 [PG-1, reference compound]",–,–,–,–,–,–,–,–,–,–,"MTD at 3 days ([1]; Balb/c, mouse, in vivo, ip): 5 mg/kg; degradation in human serum within the first 24 h (in words) (in vitro; 37° C.): significant degradation; metabolised at 24 h, 0.29 mg/mL (in vitro; human, human serum): ~55%; half-life at 0.29 mg/mL (in vitro; human, human serum, t1/2 in human serum, 37° C., LC-MS/MS): 30 ± 3 h"
"CN[C@H](CC(C)C)C(=O)N[C@H]1C(=O)N[C@@H](CC(N)=O)C(=O)N[C@H]2C(=O)N[C@H]3C(=O)N[C@H](C(=O)N[C@H](C(=O)O)c4cc(O)cc(O)c4-c4cc3ccc4O)[C@H](O)c3ccc(c(Cl)c3)Oc3cc2cc(c3O[C@@H]2O[C@H](CO)[C@@H](O)[C@H](O)[C@H]2O[C@H]2C[C@](C)(N)[C@H](O)[C@H](C)O2)Oc2ccc(cc2Cl)[C@H]1O [Vancomycin, reference compound]",–,–,–,–,–,–,–,–,–,–,S. aureus MICrange [2]: 0.5 to 1.4 µM
Colistin,–,–,–,–,–,–,–,–,–,–,"maximum tolerated dose (well tolerated intraperitoneal dose) ([1]; Balb/c mice, single i.p. dose, endpoints weight loss and clinical score): 15 mg/kg; P. aeruginosa MIC50 [3]: ≤0.2 µM; P. aeruginosa MIC90 [3]: 0.4 µM; P. aeruginosa MICrange [3]: ≤0.2 to 0.4 µM; hazard ratio [HR] (survival) ([4]; 12.3 μmol/kg, as printed in legend of FIG. 4): 24.8; hazard ratio [HR] (survival) [4]: 0.040"
"cyclo(GGVCPKILQRCRRDSDCPGACICRGNGYCGSGSGGCLCYCRRRFCVCVCRR) (disulfide 4-21, 11-23, 17-29, 36-49, 38-47, 40-45 (inferred); ring closure inferred) [MCo-PG3]",–,>25,25,25,>25,>25,>25,–,–,>25,MIC against K. pneumoniae (K. pneumoniae; [8]): above 25 μM; MIC against S. aureus (S. aureus; [8]): above 25 μM; MIC against E. coli (E. coli; [8]): above 25 μM
cyclo[GGVCPKILQRCRRDSDCPGACICRGNGYCGSGSGRLCYCRRRFCVCVGR] (cyclo(GGVCPKILQRCRRDSDCPGACICRGNGYCGSGSGRLCYCRRRFCVCVGR); not fully specified; printed as cyclo[GGVCPKILQRCRRDSDCPGACICRGNGYCGSGSGRLCYCRRRFCVCVGR]; cysteine pairing not given here) [MCo-PG5],6.2,6.2,3.1,–,12.5,12.5,12.5,12.5,1.6,1.6,MIC (P. aeruginosa; P. aeruginosa PAO1): 3.1 µM
